Measurements: US20180318311A1, “TRICYCLIC 2-QUINOLINONES AS ANTIBACTERIALS” (priority 2017, published 2018)
In brackets after ≈: the same amount, converted by molar mass. Where a name gives a salt, the structure may show the parent alone. Read-outs that look alike come from different tables or passages of the source.

Legend:
Format in all cases: cell-based
[1] = system: E. faecalis ATCC 29212 (NB04001); experiment: MIC by broth microdilution, E. faecalis NB04001; settings: Enterococcus faecalis, ATCC29212, CAMHB, 35° C., 20 hours, read-out: Antibacterial activity (MIC) NB04001
Description: (§1) Bacterial isolates were cultivated from −80° C. frozen stocks by overnight passages at 35° C. in ambient air on Mueller-Hinton agar plates (MHA, Becton Dickinson, Franklin Lakes, NB) with the exception of S. pneumoniae which was grown overnight at 35° C. in the presence of 5% CO2 on blood agar plates (tryptic soy agar with 5% sheep blood (Thermo Scientific, Waltham, Mass.) . The following quality control and wild type strains were obtained from the American Type Culture Collection (ATCC; Rockville, Md.) and are coded in the Novartis strain collection as indicated: E. coli ATCC 25922 (NB27001), E. faecalis ATCC 29212 (NB04001), S. aureus ATCC 49951 (NB01006) and S. pneumoniae ATCC […] (NB07001). […] P. aeruginosa NB52019, obtained from Queen's University (Kingston, Ontario, Canada), is the wild-type PAO1 strain.
(§2) Minimal Inhibitory Concentrations (MIC) were determined by the broth microdilution method in accordance with Clinical and Laboratories Institute (CLSI) guidelines. In brief, fresh bacterial overnight cultures were re-suspended in sterile saline, adjusted to a 0.5 McFarland turbidity standard and then diluted to yield a final inoculum of approximately 5×10^5 colony-forming units (CFU)/mL. All bacterial suspensions were prepared in cation adjusted Mueller-Hinton Broth (CAMHB; Becton Dickinson, Franklin Lakes, N.J.;) with the exception of S. pneumoniae which was prepared in CAMHB supplemented with 5% lysed horse blood (Hardy Diagnostics, Santa Maria, Calif.). Two-fold serial dilutions of compounds were prepared in 100% dimethyl sulfoxide (DMSO) at 100-fold the highest final assay concentration; the resulting dilution series of compounds were diluted 1:10 with sterile water. Ten μL of the drug dilution series in 10% DMSO was transferred to microtiter wells and 90 μL of bacterial suspension was inoculated into the wells. All inoculated microdilution trays were incubated in ambient air at 35° C. for 20 hours. Following incubation, assay plates were read in a microtiter plate reader at 600 nm and visually inspected to confirm the MIC endpoint well with the OD value. The lowest concentration of the compound that prevented visible growth was recorded as the MIC (in μg/mL).

[2] = system: S. aureus ATCC 49951 (NB01006); experiment: MIC by broth microdilution, S. aureus NB01006; settings: Staphylococcus aureus, ATCC49951, CAMHB, 35° C., 20 hours, read-out: Antibacterial activity (MIC) NB01006
Description: as §1, §2

[3] = system: E. coli ATCC 25922 (NB27001); experiment: MIC by broth microdilution, E. coli NB27001; settings: Escherichia coli, ATCC25922, CAMHB, 35° C., 20 hours, read-out: Antibacterial activity (MIC) NB27001
Description: as §1, §2

[4] = system: S. aureus NB01080 fluoroquinolone-resistant clinical isolate; experiment: MIC by broth microdilution, S. aureus NB01080; settings: Staphylococcus aureus, CAMHB, 35° C., 20 hours, read-out: Antibacterial activity (MIC) NB01080
Description: as §1, §2

[5] = system: P. aeruginosa NB52019, wild-type PAO1 strain; experiment: MIC by broth microdilution, P. aeruginosa NB52019; settings: Pseudomonas aeruginosa, CAMHB, 35° C., 20 hours, read-out: Antibacterial activity (MIC) NB52019
Description: as §1, §2

[6] = system: S. pneumoniae ATCC 25922 (NB07001); experiment: MIC by broth microdilution, S. pneumoniae NB07001; settings: Streptococcus pneumoniae, read-out: Antibacterial activity (MIC) NB07001
Description: as §1, §2

[7] = system: S. aureus NB01006-AVR005, gyrA (S84L), grlA (580F) and grlB (E471K); experiment: microbe, parasite or virus in culture; settings: Staphylococcus aureus, 20 h, read-out: Antibacterial activity (MIC) NB01006-AVR005
Description: as §1, §2

[8] = ATCC25922, S. pneumoniae, CAMHB supplemented with 5% lysed horse blood, 35° C., 20 hours

Row | SMILES | MIC [1] [mg/L] | MIC [2] [mg/L] | MIC [3] [mg/L] | MIC [4] [mg/L] | MIC [5] [mg/L] | MIC ([6]; ATCC25922, 20 h) [mg/L] | MIC [7] [mg/L] | MIC [6, 8] [mg/L]
1 | C[C@H]1COc2c(N3CC[C@@H](C4(N)CC4)C3)c(C#N)cc3cc(C(=O)O)c(=O)n1c23 [Example 17, (S)-10-((R)-3-(1-aminocyclopropyl)pyrrolidin-1-yl)-9-cyano-3-methyl-5-oxo-2,3-dihydro-5H-[1,4]oxazino[2,3,4-ij]quinoline-6-carboxylic acid trifluoroacetate salt] | < 1 | < 1 | > 32 | 1 to 32 | > 32 | < 1 | 1 to 32 | 
2 | C[C@H](N)[C@@H]1CCN(c2c(F)cc3cc(C(=O)O)c(=O)n4c3c2OC[C@@H]4C)C1 [Example 1.5, (S)-10-((R)-3-((S)-1-aminoethyl)pyrrolidin-1-yl)-9-fluoro-3-methyl-5-oxo-2,3-dihydro-5H-[1,4]oxazino[2,3,4-ij]quinoline-6-carboxylic acid] | < 1 | < 1 | 1 to 32 (≈ 2.66 to 85.2 µM) | < 1 | 1 to 32 (≈ 2.66 to 85.2 µM) | < 1 | 1 to 32 (≈ 2.66 to 85.2 µM) | 
3 | COc1c(N2CC[C@@H](C3(N)CC3)C2)c2c3c(cc(C(=O)O)c(=O)n3[C@@H](C)CO2)c1N [Example 15, (S)-8-amino-10-((R)-3-(1-aminocyclopropyl)pyrrolidin-1-yl)-9-methoxy-3-methyl-5-oxo-2,3-dihydro-5H-[1,4]oxazino[2,3,4-ij]quinoline-6-carboxylic acid formate salt] | > 32 | > 32 | > 32 | > 32 | > 32 | 1 to 32 | > 32 | 
4 | C[C@H]1COc2c(N3CC4CC4(CN)C3)c(F)cc3cc(C(=O)O)c(=O)n1c23 (stereo partly shown) [Example 1.18] | 1 to 32 (≈ 2.68 to 85.7 µM) | < 1 | > 32 | > 32 | > 32 | 1 to 32 (≈ 2.68 to 85.7 µM) | > 32 | 
5 | C[C@H]1COc2c(N3CCN4C[C@@H](F)C[C@H]4C3)c(F)cc3cc(C(=O)O)c(=O)n1c23 [Example 1.73, (S)-9-fluoro-10-((7S,8aS)-7-fluorohexahydropyrrolo[1,2-a]pyrazin-2(1H)-yl)-3-methyl-5-oxo-2,3-dihydro-5H-[1,4]oxazino[2,3,4-ij]quinoline-6-carboxylic acid] | > 32 | 1 to 32 (≈ 2.47 to 78.9 µM) | 1 to 32 (≈ 2.47 to 78.9 µM) | > 32 | > 32 | > 32 | > 32 | 
6 | CC[C@H]1COc2c(N3CC[C@@H](C4(N)CC4)C3)c(F)cc3cc(C(=O)O)c(=O)n1c23 [Example 1.19, (S)-10-((R)-3-(1-aminocyclopropyl)pyrrolidin-1-yl)-3-ethyl-9-fluoro-5-oxo-2,3-dihydro-5H-[1,4]oxazino[2,3,4-ij]quinoline-6-carboxylic acid] | 1 to 32 (≈ 2.49 to 79.7 µM) | 1 to 32 (≈ 2.49 to 79.7 µM) | > 32 | 1 to 32 (≈ 2.49 to 79.7 µM) | > 32 | < 1 | > 32 | 
7 | C[C@H]1COc2c(N3C[C@H](F)[C@@H](C4(N)CC4)C3)c(F)cc3cc(C(=O)O)c(=O)n1c23 [Example 1.74, (S)-10-((3R,4R)-3-(1-aminocyclopropyl)-4-fluoropyrrolidin-1-yl)-9-fluoro-3-methyl-5-oxo-2,3-dihydro-5H-[1,4]oxazino[2,3,4-ij]quinoline-6-carboxylic acid] | 1 to 32 (≈ 2.47 to 78.9 µM) | < 1 | 1 to 32 (≈ 2.47 to 78.9 µM) | 1 to 32 (≈ 2.47 to 78.9 µM) | > 32 | < 1 | 1 to 32 (≈ 2.47 to 78.9 µM) | 
8 | COC(=O)c1cc2cc(F)c(N3CC[C@@H](C4(N)CC4)C3)c3c2n(c1=O)[C@@H](C)CO3 [Example 1.7, Methyl (S)-10-((R)-3-(1-aminocyclopropyl)pyrrolidin-1-yl)-9-fluoro-3-methyl-5-oxo-2,3-dihydro-5H-[1,4]oxazino[2,3,4-ij]quinoline-6-carboxylate] | < 1 | < 1 | > 32 | < 1 |  | < 1 | 1 to 32 (≈ 2.49 to 79.7 µM) | 
9 | C[C@@H]1COc2c(N3CCNCC3)c(F)cc3c(CN)cc(=O)n1c23 [Example 7.4, (R)-7-(aminomethyl)-9-fluoro-3-methyl-10-(piperazin-1-yl)-2,3-dihydro-5H-[1,4]oxazino[2,3,4-ij]quinolin-5-one] |  |  | > 32 | > 32 | > 32 |  | > 32 | > 32
10 | C[C@@H]1COc2c(N3CCC(F)(CN)C3)c(F)cc3c(CN)cc(=O)n1c23 (stereo partly drawn) [Example 7.3, (3R)-7-(aminomethyl)-10-(3-(aminomethyl)-3-fluoropyrrolidin-1-yl)-9-fluoro-3-methyl-2,3-dihydro-5H-[1,4]oxazino[2,3,4-ij]quinolin-5-one] |  |  | > 32 | > 32 | > 32 | > 32 | > 32 | 
11 | NCc1cc(=O)n2c3c(c(N4CCC(F)(CN)C4)c(F)cc13)OCC2 (stereo not shown) [Example 7.5, 7-(aminomethyl)-10-(3-(aminomethyl)-3-fluoropyrrolidin-1-yl)-9-fluoro-2,3-dihydro-5H-[1,4]oxazino[2,3,4-ij]quinolin-5-one] |  |  | > 32 | > 32 | > 32 | > 32 | > 32 | 
12 | O=C(O)c1cn(C2CC2)c2cc(N3CCNCC3)c(F)cc2c1=O [CIP, Ciprofloxacin, reference compound] | < 1 | < 1 | < 1 |  | < 1 | < 1 |  | 
13 | C[C@H]1COc2c(N3CCC(F)(CN)C3)c(F)cc3c(CN)cc(=O)n1c23.O=C(O)C(F)(F)F (stereo partly drawn) [Example 7.1, (3S)-7-(aminomethyl)-10-(3-(aminomethyl)-3-fluoropyrrolidin-1-yl)-9-fluoro-3-methyl-2,3-dihydro-5H-[1,4]oxazino[2,3,4-ij]quinolin-5-one trifluoroacetate salt] |  |  | 1 to 32 | 1 to 32 | 1 to 32 |  | 1 to 32 | < 1
14 | NCc1cc(=O)n2c3c(c(N4CCNCC4)c(F)cc13)OCC2 [Example 7.7, 7-(aminomethyl)-9-fluoro-10-(piperazin-1-yl)-2,3-dihydro-5H-[1,4]oxazino[2,3,4-ij]quinolin-5-one] |  |  | > 32 | > 32 | > 32 |  | > 32 | > 32
15 | N#Cc1cc(=O)n2c3c(c(N4CCNCC4)c(F)cc13)OCC2 [Example 7.8, 9-fluoro-5-oxo-10-(piperazin-1-yl)-2,3-dihydro-5H-[1,4]oxazino[2,3,4-ij]quinoline-7-carbonitrile] |  |  | > 32 | > 32 | > 32 |  | > 32 | > 32
16 | N#Cc1cc(=O)n2c3c(c(N4CCC(F)(CN)C4)c(F)cc13)OCC2 (stereo not shown) [Example 7.6, 10-(3-(aminomethyl)-3-fluoropyrrolidin-1-yl)-9-fluoro-5-oxo-2,3-dihydro-5H-[1,4]oxazino[2,3,4-ij]quinoline-7-carbonitrile] |  |  | > 32 | 1 to 32 (≈ 2.89 to 92.4 µM) | > 32 | > 32 | > 32 | 
17 | C[C@H]1COc2c(N3CC[C@H](N)C3)c(F)cc3c(CN)cc(=O)n1c23 [Example 7.2, (S)-7-(aminomethyl)-10-((S)-3-aminopyrrolidin-1-yl)-9-fluoro-3-methyl-2,3-dihydro-5H-[1,4]oxazino[2,3,4-ij]quinolin-5-one] |  |  | 1 to 32 (≈ 3.01 to 96.3 µM) | > 32 | 1 to 32 (≈ 3.01 to 96.3 µM) | 1 to 32 (≈ 3.01 to 96.3 µM) | 1 to 32 (≈ 3.01 to 96.3 µM) | 
